In series [1] the test system is spontaneous motor activity. Kind of series: Sedation: effects on spontaneous motor activity of rats in novel cages equipped with photocells (number of cage crossings). The class given is in vivo. The conditions noted are these: rat. An excerpt: Representative compounds according to the invention have been tested for their effects on spontaneous motor activity occasioned by placing rats in novel cages equipped with photocells in order to determine the number of cage crossings. This is an art-recognised model of the sedation potential of a given test compound.

The test system of series [2] is apomorphine-induced stereotypy. Kind of series: Extrapyramidal disorders: effect on apomorphine-induced stereotypy in the rat. It counts as in vivo. An excerpt: Representative compounds according to the invention have been tested for their effect on apomorphine-induced stereotypy in the rat. This is an art-recognised model of the potential to induce extrapyramidal side-effects.

For series [3], the target named is T1, human dopamine D2 receptor subtype (Homo sapiens, UniProt P14416).
T1 construct: expressed in transfected cells
T1 sequence (P14416 whole entry): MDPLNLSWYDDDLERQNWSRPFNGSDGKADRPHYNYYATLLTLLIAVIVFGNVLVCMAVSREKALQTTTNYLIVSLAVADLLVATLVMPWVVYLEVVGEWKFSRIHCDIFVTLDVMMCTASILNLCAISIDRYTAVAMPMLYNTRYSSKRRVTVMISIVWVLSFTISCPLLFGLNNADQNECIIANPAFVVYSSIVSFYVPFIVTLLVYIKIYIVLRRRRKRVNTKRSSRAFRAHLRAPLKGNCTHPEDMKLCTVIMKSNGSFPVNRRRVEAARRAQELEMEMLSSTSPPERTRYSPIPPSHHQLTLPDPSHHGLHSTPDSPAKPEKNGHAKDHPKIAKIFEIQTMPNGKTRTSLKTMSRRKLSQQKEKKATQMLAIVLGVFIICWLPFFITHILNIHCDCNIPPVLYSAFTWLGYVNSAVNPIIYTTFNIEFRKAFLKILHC
Kind of series: [3H]-Spiperone binding (displacement), human dopamine D2 receptor subtype. The conditions noted are these: human dopamine D2 receptor subtype expressed in clonal cell lines.

In series [4] the target is T2, human dopamine D4 receptor subtype (Homo sapiens, UniProt P21917).
T2 sequence (P21917 1-419): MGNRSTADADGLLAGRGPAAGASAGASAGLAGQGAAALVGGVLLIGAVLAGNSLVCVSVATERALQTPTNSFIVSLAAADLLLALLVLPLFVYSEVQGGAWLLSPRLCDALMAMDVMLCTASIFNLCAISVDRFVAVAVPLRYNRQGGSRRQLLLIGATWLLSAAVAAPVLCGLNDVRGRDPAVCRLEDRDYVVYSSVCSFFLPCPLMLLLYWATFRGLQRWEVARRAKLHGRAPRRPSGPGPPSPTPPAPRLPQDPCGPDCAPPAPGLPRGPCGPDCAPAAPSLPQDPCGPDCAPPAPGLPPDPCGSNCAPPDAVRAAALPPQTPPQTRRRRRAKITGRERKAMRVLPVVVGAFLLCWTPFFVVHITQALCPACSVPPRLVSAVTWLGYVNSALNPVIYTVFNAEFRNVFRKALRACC
The series is described as follows: [3H]-Spiperone binding (displacement), human dopamine D4 receptor subtype. The settings on record: selectivity ratio from Ki values for D4 and D2 subtypes.

The text below walks through data of US5622950A, “Pyrrolo-pyridine derivatives” (Merck, Sharp & Dohme Ltd., priority 1993, dated 1997).

Take `O=C(CCCN1CCC(O)(c2ccc(Cl)cc2)CC1)c1ccc(F)cc1` [haloperidol, reference compound]: the “sedation (spontaneous motor activity)” value in series [1] (dose of 1 mg/kg) is listed as “marked sedation”. Also, the “potential to elicit extrapyramidal side-effects (apomorphine-induced stereotypy)” value in series [2] (doses of 0.5 and 1.0 mg/kg) is recorded as “significant potential to elicit extrapyramidal side-effects”.
With `Clc1ccc(N2CCN(Cc3c[nH]c4ncccc34)CC2)cc1` [Example 5, 3-(4-[4-Chlorophenyl]piperazin-1-yl)methyl-1H-pyrrolo [2,3-b]pyridine], the “sedation (spontaneous motor activity)” value in series [1] (doses of up to 10-30 mg/kg) is given as “no evidence for sedation”. For the same compound, the “potential to induce extrapyramidal side-effects (apomorphine-induced stereotypy)” value in series [2] (doses up to 1.0 mg/kg) is listed as “no potential to induce the extrapyramidal side-effects”.
Consider `COc1ccc(N2CCN(Cc3c[nH]c4ncccc34)CC2)cc1` [Example 2, 3-(4-[4-Methoxyphenyl]piperazin-1-yl)methyl-1H-pyrrolo [2,3-b]pyridine], for which the Ki in series [3] is > 1500 nM. For the same compound, in series [4], the “D4:D2 ratio” value is given as “greater than 1150”.

What is called Ki is a dissociation constant, usually derived from enzyme kinetics or from competition with a known ligand. A high value points to weaker binding.
